Assay [1] relates to Lactobacillus reuteri CH53 strain. In words: IC50 of Lactobacillus reuteri CH53 strain for metabolites (Example 1). The assay is classed as cell-based. How it is done: The half-maximal inhibitory concentrations (IC50) of the Lactobacillus reuteri CH53 strain (KCTC13149BP) for major metabolites were measured. […] Thereafter, 1% (v/v) of the strain culture with OD600 nm=8.0 was inoculated into each broth and statically cultured at 37° C. for 24 hours, and the concentration at which the absorbance (OD600 nm) was half of the control was measured.

Assay [2] deals with L. reuteri CH53. The experiment in a line: IC50 for organic acids, parent strain (Example 3). To be noted: Limosilactobacillus reuteri. In kind it is cell-based, Lactobacillus reuteri. The method, then:
(§1) In order to confirm that the Lactobacillus reuteri JH53 strain of the present invention has enhanced organic acid resistance, the half-maximal inhibitory concentrations (IC50) for organic acids were measured. […] Thereafter, 1% (v/v) of each strain culture with OD600 nm=8.0 was inoculated into each broth and statically cultured at 37° C. for 24 hours, and the concentration at which the absorbance (OD600 nm) was half of the control was measured.

The subject of assay [3] is L. reuteri JH53. The experiment in a line: IC50 for organic acids, mutant strain (Example 3). In kind it is cell-based, Lactobacillus reuteri. To be noted: Limosilactobacillus reuteri, JH53, 24 h, pH 5.5, read-out: IC50 (g/L) L. reuteri JH53. How it is done: as §1
For assay [4], the system named is Lactobacillus reuteri CH53 strain. In words: Fed-batch culture of CH53 in medium supplemented with organic acid. To be noted: 10 g/L organic acid added, pH 5.5, fed-batch, 37° C., 100 rpm. In kind it is cell-based. How it is done:
Cell growth and 1,3-propanediol production were measured while the Lactobacillus reuteri CH53 strain was fed-batch cultured in a medium supplemented with an organic acid. 3 L of MRS broth containing 20 g/L of glycerol, 10 g/L of proteose peptone NO. […] During culture, glucose and glycerol were continuously fed so that they could be maintained at residual concentrations of 5 to 10 g/L. Thereafter, 1% (v/v) of the strain culture with OD600 nm=8.0 was inoculated into each broth, and the absorbance (OD600 nm) was measured while fed-batch culture was carried out under conditions of 37° C. and 100 rpm. 1 mL of each culture was centrifuged at 13,000 rpm for 5 minutes, and then the supernatant was filtered through a 0.22-μm filter and the concentration of 1,3-propanediol was measured using high-performance liquid chromatography. 1,3-Propanediol production was analyzed by high-performance liquid chromatography equipped with an ion exchange column ([…], Aminex HPX-87H, Bio-Rad) and a differential refraction detector (RID) using 0.25 mM H2SO4 as a mobile phase at a flow rate of 0.6 ml/min.

The test system is the same in assay [5]. To be noted: lactic acid and acetic acid mixed in MRS plate medium, anaerobic, 37° C., 24 hours.
The mark [6] stands for this setting: Limosilactobacillus reuteri, CH53STRAIN, CH53 strain, MRS broth pH 5.5, static culture 37° C. 24 hours, concentration at which OD600 nm was half of control, read-out: IC50.

Values after ≈ are worked out from the molar mass of the structure shown. Read-outs that look alike come from different tables or passages of the source. Bounds are passed on as bounds.

On to `OCCCO` [1,3-propanediol], for which the “IC50” value in assay [1] (CH53 strain, MRS broth pH 5.5, static culture 37° C. 24 hours, concentration at which OD600 nm was half of control) amounted to 79.8 mg/mL.
With `CC(=O)O` [Acetic acid], the IC50 in assay [1] (Limosilactobacillus reuteri, CH53STRAIN, 24 h, pH 5.5) worked out at 17.4 mg/mL; in assay [2] (CH53, 24 h, pH 5.5, read-out: IC50 (g/L) L. reuteri CH53), 20.6 g/L (≈ 343 mM); in assay [3], 25.6 g/L (≈ 426 mM). For the same compound, the “Effect on 1,3-propanediol production of CH53 strain” value in assay [4] was “reduced 1,3-propanediol production”. Further, the “Effect on cell growth of CH53 strain” value in assay [4] is listed as “did not affect cell growth”. For the same compound, the “Concentration at which CH53 strain could not grow” value in assay [5] is recorded as at least 17.5 g/L.
`CCO` [Ethanol]: the IC50 in assay [1] (setting [6]) came out at 29.5 mg/mL.
With `CC(O)C(=O)O` (centres unmarked) [Lactic acid], the IC50 stood at 27.9 mg/mL in assay [1] (setting [6]); 31.9 g/L (≈ 354 mM) in assay [2] (CH53, MRS broth pH 5.5, static culture 37° C. 24 hours, OD600 nm half of control, read-out: IC50 (g/L) L. reuteri CH53); 36.7 g/L (≈ 407 mM) in assay [3]. Moreover, the “Effect on 1,3-propanediol production of CH53 strain” value in assay [4] is on record as “reduced 1,3-propanediol production”. Also, in assay [4], the “Effect on cell growth of CH53 strain” value was “did not affect cell growth”. Further, the “Concentration at which CH53 strain could not grow” value in assay [5] is at least 35.0 g/L.
